# System: Male Syrian hamsters (Mesocricetus auratus)
# Experiment: Plasma lipid levels in hamsters fed 0.1% cholesterol, oral treatment for 10 days
# Format: in vivo
# Conditions: feed + 0.1% CH; for Plasma Cholesterol % / Plasma Triglycerides %: Cholesterol ctr. = 100; for Plasma Cholesterol / Plasma LDL / Plasma Triglycerides: plasma day 10
# Description: The synergistic activity of the combination product of a compound of formula I with the other active ingredient was tested in an animal experiment. For this purpose, compound V1 from the compound of formula I was tested: Hamsters were used for the biological testing of the combination product of the invention. Male Syrian hamsters (Mesocricetus auratus) from 8 to 10 weeks of age were used for the experiment. The animals received a standard feed (Teklad 8604M) supplemented with 0.1% cholesterol. An additional normal control group received only standard feed. The test substances were administered orally by gavage once a day on 10 consecutive days, and the control group was treated with the vehicle. Feces were collected on days 5 and 6 of the experiment for bile acid analysis. Retroorbital blood was taken from the animals on day 10 of the experiment, and the lipid levels in the plasma were determined. Radioactive tracers were administered orally to the animals on day 9 of the experiment to determine the cholesterol absorption in analocy to the method described by Zilversmith et al. On day 11 of the experiment, the animals were sacrificed, and the animals' livers were removed for cholesterol analysis and preparation of microsomes. The 7α-hydroxylase activity was determined in the liver microsomes ex vivo by a modified method of Hylemon et al. [table] • K00004513 employed as stock solution (1 mg/ml in EtOH) • Substances are dissolved in 2% EtOH in a final concentration of 5%. • The solutions are then suspended with 0.4% potato starch. • Administration takes place 1× in the morning with 10 ml/kg Feed: Teklad 8604M CH: 032201 M Experimental animals: Male Syrian hamsters (Mesocricetus auratus) supplied by Harlan 100–120 g at the start of adaptation Measured Parameters: • Feed consumption • Animal weight (weekly) • Liver weight • Safety parameters (CH; TG; ALAT/ASAT; AP; HDULDL) • Liver cholesterol (HPLC)=1×500 mg in EtOH/KOH • CYP7 activity (liver microsomes as group pool of 0.5 g each—preparation on day of experiment) • Feces collected on day 5–7 for bile acid determination
Structure (SMILES),Plasma Cholesterol % (0.1 mg/kg/d oral),Plasma Triglycerides % (0.1 mg/kg/d oral),Plasma Cholesterol (0.1 mg/kg/d oral),Plasma LDL (0.1 mg/kg/d oral),Plasma Triglycerides (0.1 mg/kg/d oral),Plasma Cholesterol % (0.3 mg/kg/d oral),Plasma Triglycerides % (0.3 mg/kg/d oral),Plasma Cholesterol (0.3 mg/kg/d oral),Plasma LDL (0.3 mg/kg/d oral),Plasma Triglycerides (0.3 mg/kg/d oral),Plasma Cholesterol % (1 mg/kg/d oral),Plasma Triglycerides % (1 mg/kg/d oral),Plasma Cholesterol (1 mg/kg/d oral),Plasma LDL (1 mg/kg/d oral),Plasma Triglycerides (1 mg/kg/d oral)
"O=C1[C@H](CC[C@H](O)c2ccc(F)cc2)[C@@H](c2ccc(O)cc2)N1c1ccc(F)cc1 [Ezetimibe, ezetimibe, reference compound]",98%,100%,3.44 mmol/L,1.04 mmol/L,1.63 mmol/L,,,,,,,,,,
CCCC[C@]1(CC)CS(=O)(=O)c2ccc(N(C)C)cc2[C@@H](c2cccc(NC(=O)CCCCNC[C@H](O)[C@@H](O)[C@H](O)[C@H](O)CO)c2)[C@H]1O [V1],120%,115%,4.20 mmol/L,1.06 mmol/L,1.87 mmol/L,114%,108%,4.01 mmol/L,1.18 mmol/L,1.75 mmol/L,92%,124%,3.23 mmol/L,0.92 mmol/L,2.02 mmol/L

# Source: patent US7179792B2, “Combination product of a 1,4-benzothiepine 1,1-dioxide compound with at least one other active ingredient and the use of the product” (Sanofi-Aventis Deulschland GmbH, priority 2001, dated 2007)
